target: T1, human μ-opioid receptor (Homo sapiens, UniProt P35372); test: Affinity to the human μ-opioid receptor ([3H]-naloxone displacement, SPA); assay type: binding; conditions: compound 1 μmol/l; 1 nmol/l [3H]-naloxone; CHO-K1 membrane preparation
T1 construct: purchased NEN, Zaventem, Belgium RB-HOM; host or cells: CHO-K1 cells (membrane preparation)
Method: III. Method for Determining the Affinity to the Human μ-Opioid Receptor
The receptor affinity to the human μ-opioid receptor is determined in a homogeneous batch in microtitre plates. In this case, dilution series of the respective substituted 5,6,7,8-tetrahydro-imidazo[1,2-a]pyridin-2-ylamine compound of the general formula I to be tested are incubated with a receptor membrane preparation (15-40 μg of protein per 250 μl of the incubation batch) of CHO-K1 cells which express the human μ-opioid receptor (μ-opiate receptor) (RB-HOM receptor membrane preparation from NEN, Zaventem, Belgium) in the presence of 1 nmol/l of the radioactive ligands [^3H]-naloxone (NET719, NEN, Zaventem, Belgium) and also 1 mg of WGA SPA beads (wheat germ agglutinin SPA beads from Amersham Pharmacia, Freiburg, Germany) in a total volume of 250 μl at room temperature for 90 minutes. 50 mmol/l tris-HCl are used as an incubation buffer with 0.05% by weight of sodium azide and 0.06% by weight of bovine serum albumin. 25 μmol/l naloxone are also added to determine the non-specific bond. At the end of the 90 minute incubation period, the microtitre plates are centrifuged off for 20 minutes at 1000 g and the radioactivity is measured with a β-counter (Microbeta-Trilux, PerkinElmer Wallac, Freiburg, Germany. The percentage of displacement of the radioactive ligand from its bond to the human μ-opiate receptor at a concentration of 1 μmol/l of the compound to be tested is determined and indicated as a % inhibition of the specific bond.

T1 sequence (P35372 whole entry): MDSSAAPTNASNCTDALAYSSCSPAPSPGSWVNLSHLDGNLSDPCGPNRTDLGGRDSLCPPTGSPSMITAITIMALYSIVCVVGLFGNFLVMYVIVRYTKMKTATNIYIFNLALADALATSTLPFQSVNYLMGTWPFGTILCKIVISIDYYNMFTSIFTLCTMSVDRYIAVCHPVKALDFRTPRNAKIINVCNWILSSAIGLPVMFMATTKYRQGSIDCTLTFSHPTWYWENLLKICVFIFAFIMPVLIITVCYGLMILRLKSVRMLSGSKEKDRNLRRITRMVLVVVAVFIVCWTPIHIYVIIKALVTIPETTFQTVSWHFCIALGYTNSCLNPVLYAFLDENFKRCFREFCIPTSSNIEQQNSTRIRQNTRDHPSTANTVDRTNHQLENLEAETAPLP

Structure (SMILES) | μ-opioid receptor (man) (% inhibition) [%]
CCCCN(C(=O)c1cccc(Cl)c1)c1nc2n(c1C(=O)NCCSCc1c(Cl)cccc1Cl)CCCC2 [Example 95, 2-[butyl-(3-chloro-benzoyl)-amino]-5,6,7,8-tetrahydro-imidazo[1,2-a]pyridine-3-carboxylic acid [2-(2,6-dichlor-benzylsulphanyl)-ethyl]-amide] | 53

same assay, conditions: compound 1 μmol/l; 1 nmol/l [3H]-naloxone; CHO-K1 membrane preparation; read-out: μ-opioid receptor (man) (% inhibition)

Structure (SMILES) | inhibition at 1 µM [%]
CN(C(=O)c1cccc2ccccc12)c1nc2n(c1C(=O)NCc1cc(C(F)(F)F)cc(C(F)(F)F)c1)CCCC2 [Example 15, 2-[Methyl-(naphthalene-1-carbonyl)-amino]-5,6,7,8-tetrahydro-imidazo[1,2-a]pyridine-3-carboxylic acid 3,5-bis-trifluoromethyl-benzylamide] | 35
CN(C(=O)c1cccc(Cl)c1)c1nc2n(c1C(=O)N1CCN(CCc3ccccc3)CC1)CCCC2 [Example 106, 3-chloro-N-methyl-N-[3-(4-phenethyl-piperazine-1-carbonyl)-5,6,7,8-tetrahydro-imidazo[1,2-a]pyridin-2-yl]-benzamide] | 30
CC(CCc1ccccc1)NC(=O)c1c(N(C)C(=O)c2cccc3ccccc23)nc2n1CCCC2 (centres unmarked) [Example 112, 2-[methyl-(naphthalene-1-carbonyl)-amino]-5,6,7,8-tetrahydro-imidazo[1,2-a]pyridine-3-carboxylic acid (1-methyl-3-phenyl-propyl)-amide] | 51
CCCCN(C(=O)c1ccc(F)c(F)c1)c1nc2n(c1C(=O)NCCC(c1ccccc1)c1ccccc1)CCCC2 [Example 180, 2-[butyl-(3,4-difluoro-benzoyl)-amino]-5,6,7,8-tetrahydro-imidazo[1,2-a]pyridine-3-carboxylic acid (3,3-diphenyl-propyl)-amide] | 47
CCCCN(C(=O)c1cccc(Cl)c1)c1nc2n(c1C(=O)Nc1ccc3c(c1)OCCO3)CCCC2 [Example 181, 2-[butyl-(3-chloro-benzoyl)-amino]-5,6,7,8-tetrahydro-imidazo[1,2-a]pyridine-3-carboxylic acid (2,3-dihydro-benzo[1,4]dioxin-6-yl)-amide] | 58
CN(C(=O)Cc1ccccc1)c1nc2n(c1C(=O)N1CCN(c3ccccc3)CC1)CCCC2 [Example 186, N-methyl-2-phenyl-N-[3-(4-phenyl-piperazine-1-carbonyl)-5,6,7,8-tetrahydro-imidazo[1,2-a]pyridin-2-yl]-acetamide] | 48
Cc1cc(Cl)cc(Cl)c1CNC(=O)c1c(N(C)C(=O)c2ccccc2)nc2n1CCCC2 [Example 188, 2-(benzoyl-methyl-amino)-5,6,7,8-tetrahydro-imidazo[1,2-a]pyridine-3-carboxylic acid 2,4-dichloro-6-methyl-benzylamide] | 59

— patent publication US7829568B2, “Substituted 5,6,7,8-tetrahydroimidazo[1,2-a]pyridin-2-ylamine compounds and their use for producing drugs” (Gruenenthal GmbH, priority 2005, dated 2010)
